Measured values reported in the supplement of paper PMC10307832.

Experiments:
Test in all cases: relative viability (nuclei count vs DMSO), 5 days (fraction); higher = more cells survive
[1] = compound: CN1CCC(CNc2ccc3ncc(-c4cccc(OC(F)(F)F)c4)n3n2)CC1 [SGI-1776] + CS(=O)(=O)N1CCN(Cc2cc3nc(-c4cccc5[nH]ncc45)nc(N4CCOCC4)c3s2)CC1 [Pictilisib] (partner 1 µM)
Summary of the method: (§1)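 Relative viability divides the nuclei count in treated wells by that in vehicle wells. Lung cancer cell lines were seeded in 1536-well plates, dosed by pin tool the next day, and fixed and stained after 5 days in one step with final 0.05% Triton X-100, 1% formaldehyde and 1 ug/ml Hoechst. Dosing was a single drug or a fixed anchor-drug dose plus five library-drug doses (not always all listed) in √10 steps, and values are medians of duplicate plates imaged at 4×.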

[2] = compound: CN1CCC(CNc2ccc3ncc(-c4cccc(OC(F)(F)F)c4)n3n2)CC1 [SGI-1776] + Nc1nc2[nH]cc(CCc3ccc(C(=O)N[C@@H](CCC(=O)O)C(=O)O)cc3)c2c(=O)[nH]1 [Pemetrexed] (partner 0.2 µM)
Summary of the method: as §1

[3] = compound: C1COCCN1C2=NC(=NC3=C2OC4=C3C=CC=N4)C5=CC(=CC=C5)NC(=O)C6=CN=C(C=C6)N + O=C(c1cc(Cc2n[nH]c(=O)c3ccccc23)ccc1F)N1CCN(C(=O)C2CC2)CC1 [Olaparib] (partner 8 µM)
Summary of the method: as §1

[4] = compound: Nc1ccccc1NC(=O)c1ccc(CNC(=O)OCc2cccnc2)cc1 [Entinostat] + CC(=O)Nc1cccc(-n2c(=O)n(C3CC3)c(=O)c3c(Nc4ccc(I)cc4F)n(C)c(=O)c(C)c32)c1 [Trametinib] (partner 0.02 µM)
Summary of the method: as §1

Cell Line	relative viability ([1]; first compound 0.08 µM)	relative viability ([1]; first compound 0.8 µM)	relative viability ([1]; first compound 2.53 µM)	relative viability ([1]; first compound 8 µM)	relative viability ([2]; first compound 0.08 µM)	relative viability ([2]; first compound 0.8 µM)	relative viability ([2]; first compound 2.53 µM)	relative viability ([2]; first compound 8 µM)	relative viability ([3]; first compound 0.02 µM)	relative viability ([3]; first compound 0.06325 µM)	relative viability ([3]; first compound 0.2 µM)	relative viability ([3]; first compound 0.6325 µM)	relative viability ([3]; first compound 2 µM)	relative viability ([4]; first compound 0.02 µM)	relative viability ([4]; first compound 0.06325 µM)	relative viability ([4]; first compound 0.2 µM)	relative viability ([4]; first compound 0.6325 µM)	relative viability ([4]; first compound 2 µM)
NCI-H1437	0.435	0.517	0.367	0.219	0.3	0.328	0.28	0.265	0.645	0.682	0.613	0.681	0.239	0.406	0.31	0.276	0.276	0.221
EKVX	0.421	0.453	0.455	0.379	0.396	0.477	0.395	0.371	0.929	0.831	0.88	0.832	0.563	0.364	0.344	0.261	0.252	0.227
NCI-H460	0.376	0.343	0.42	0.289	0.0693	0.062	0.0616	0.0609	0.578	0.537	0.376	0.413	0.182	0.226	0.0831	0.0851	0.0455	0.0239
NCI-H1993	0.711	0.665	0.839	0.703	0.61	0.569	0.559	0.548	0.949	1.07	1.06	0.958	0.201	0.484	0.572	0.504	0.475	0.492
HCC-78	0.27	0.231	0.199	0.164	0.894	0.875	0.908	0.939	0.751	0.896	0.85	0.842	0.583	0.706	0.662	0.505	0.377	0.253
NCI-H2087	0.953	0.974	0.826	0.899	0.672	0.607	0.68	0.651	0.582	0.62	0.546	0.636	0.32	0.189	0.193	0.169	0.136	0.141
H3255	0.479	0.451	0.456	0.392	0.602	0.609	0.649	0.471	0.522	0.531	0.531	0.56	0.436	0.681	0.57	0.528	0.402	0.295
NCI-H2126	0.499	0.534	0.501	0.468	0.736	0.693	0.693	0.624	0.889	0.962	0.876	0.865	0.532	0.592	0.506	0.525	0.347	0.312
LCLC-103H	0.752	0.608	0.554	0.45	0.488	0.446	0.452	0.466	0.732	0.799	0.815	0.745	0.502	0.718	0.605	0.713	0.588	0.561
RERF-LC-KJ	0.556	0.533	0.568	0.353	0.46	0.477	0.461	0.412	0.953	0.982	0.866	0.93	0.554	0.915	0.833	0.726	0.418	0.323
EBC-1	0.436	0.374	0.299	0.15					0.7	0.77	0.582	0.668	0.356					
HCC-15	0.657	0.839	0.665	0.468	0.229	0.226	0.223	0.197	0.757	0.775	0.735	0.671	0.628	0.392	0.323	0.245	0.221	0.161
NCI-H1650	0.586	0.542	0.355	0.146	0.348	0.367	0.36	0.296	0.72	0.903	0.757	0.88	0.591	0.594	0.585	0.507	0.372	0.376
COR-L 105	0.409	0.389	0.342	0.308	1.06	1.14	1.11	1.09	0.71	0.649	0.607	0.671	0.63	0.475	0.45	0.45	0.413	0.406
NCI-H596	0.43	0.383	0.365	0.298	0.442	0.51	0.505	0.461	0.589	0.668	0.601	0.747	0.621	0.748	0.638	0.807	0.649	0.459
